Columns and labels:
Format in all cases: in vivo, human
[1] = tested on: patients with ADSL deficiency; assay: Urinary assay of SAICAr and S-Adenosine by HPLC-MS/MS in patients treated with allopurinol; details: for urinary SAICAr: three children, allopurinol 200 mg/d
Protocol: SAICAr and S-Ado metabolites in urine were assayed using HPLC-DAD and HPLC coupled with tandem mass spectrometry (HPLC-MS/MS) according to the techniques recently described (Ceballos-Picot et al. 2015; Zikanova et al. 2014).
The patients received allopurinol daily by the oral route (200 mg/d).

[2] = tested on: patients with ADSL deficiency; assay: Conners scale (parents and teachers) during allopurinol treatment
Protocol: (§1) Clinical characterization of the patients was carried out before starting treatment (T1) in accordance with the ICD 10 classification, using standardized tools: • A semi-structured interview by means of the Autism Diagnostic Interview (ADI-R): this is a semi-structured interview intended to classify symptoms reported by parents in the domain of communication, social interaction, restricted and stereotyped behaviours or sensory issues. Scores are established for the current period and, if necessary, for the period when the difficulties were most serious, between the ages of 4 and 5 years. A score is established for each of the three domains based on responses provided by the parents and the judgement of the interviewer. Scores above the thresholds in the 3 domains support a diagnosis of autism, and in one or two domains support a diagnosis of a pervasive developmental disorder. Scores below the thresholds in the 3 domains make it possible to rule out diagnosis of an autism spectrum disorder if the ADI-R results converge with the clinical assessment of the child. • A semi-structured interview using the Vineland 2 scale: this is a semi-structured interview which makes it possible to assess the adaptive skills of the child in the domains of communication, daily life, social skills and motor skills. From the description of their child's daily living skills, equivalent developmental ages and standardized scores are calculated, making it possible to describe the developmental and adaptive profile of the child. • A developmental assessment using the Psychoeducational Profile (PEP 3): this is a direct assessment of the skills of the child in several domains of their development, particularly suited to children who display a developmental disability. Six domains of development are assessed: verbal and preverbal cognition (VPC), expressive language (EL), receptive language (RL), gross motor skills (GM), fine motor skills (FM) and visual-motor imitation (VMI). The results are expressed in terms of equivalent developmental age and emerging score, when the exercises are partially completed. The number of emerging skills, or the difference between the actual ages and the emerging scores, are evidence of the development potential of the children. • The Conners scale: this is an assessment scale intended to quantify the symptoms of inattentiveness, agitation, impulsiveness, anxiety, somatization, behavioural difficulties and learning difficulties. There are several versions of the questionnaire, one for parents, the other for teachers or professionals. The scoring makes it possible to obtain an overall standardized score, considered to be significant when it is greater than 1.5.
(§2) Clinical re-assessments were carried out 6 months and one year after treatment with allopurinol and compared to the first assessment in the absence of treatment with allopurinol. They comprised: • At 6 months: scoring of the Vineland and Conners scales • At 12 months: scoring of the Vineland and Conners scales and completion of PEP-3.
Clinical progress at 200 mg of allopurinol was measured for each child based on the Conner and Vineland scale scores before treatment (T1), at 6 months (T2) and at 12 months of treatment (T3) with regard to behaviour and function.

[3] = tested on: patients with ADSL deficiency; assay: Psychoeducational Profile (PEP3) developmental assessment during allopurinol treatment
Protocol: as §1, §2
Developmental progress was measured by means of developmental ages on the PEP3 scale before treatment (T1) and after a year of treatment (T3).

[4] = patient P1, T2 (6 months) vs T1
[5] = patient P1, T3 (12 months) vs T1
[6] = patient P2, T2 (6 months) vs T1
[7] = patient P2, T3 (12 months) vs T1
[8] = patient P3, T2 (6 months) vs T1
[9] = patient P3, T3 (12 months) vs T1
[10] = Patient 1, T3 (12 months), T1 2.2
[11] = Patient 1, T3 (12 months), T1 1.7
[12] = Patient 2, T3 (12 months), T1 2.3
[13] = Patient 3, T3 (12 months), T1 1.4

O=c1ncnc2[nH][nH]cc1-2 [allopurinol, 1,2-dihydro-4H-pyrazolo[3,4-d]pyrimidin-4-one]
SAICAr, urine ([1]; patient P1, 6 months (T2) of allopurinol 200 mg/d oral, T1 37.7): 32.9 μmol/mmol creat | S-Adenosine, urine ([1]; patient P1, 6 months (T2) of allopurinol 200 mg/d oral, before treatment (T1) 55.4): 51.6 μmol/mmol creat | SAICAr, urine ([1]; patient P1, 12 months (T3) of allopurinol 200 mg/d oral, T1 37.7): 19.4 μmol/mmol creat | S-Adenosine, urine ([1]; patient P1, 12 months (T3) of allopurinol 200 mg/d oral, T1 55.4): 36.4 μmol/mmol creat | % variation S-Adenosine [1, 4]: −6.9% | % variation SAICAr [1, 4]: −12.7% | S-Ado/SAICAr ratio, urine ([1]; patient P1, T2 (6 months), T1 1.47): 1.57 | % variation S-Adenosine [1, 5]: −34.3% | % variation SAICAr [1, 5]: −48.6% | S-Ado/SAICAr ratio, urine ([1]; patient P1, T3 (12 months), T1 1.47): 1.88 | SAICAr, urine ([1]; patient P2, 6 months (T2) of allopurinol 200 mg/d oral, T1 95.4): 57.9 μmol/mmol creat | S-Adenosine, urine ([1]; patient P2, 6 months (T2) of allopurinol 200 mg/d oral, T1 116.3): 79.3 μmol/mmol creat | SAICAr, urine ([1]; patient P2, 12 months (T3) of allopurinol 200 mg/d oral, T1 95.4): 46.8 μmol/mmol creat | S-Adenosine, urine ([1]; patient P2, 12 months (T3) of allopurinol 200 mg/d oral, T1 116.3): 63.7 μmol/mmol creat | % variation S-Adenosine [1, 6]: −31.8% | % variation SAICAr [1, 6]: −39.3% | S-Ado/SAICAr ratio, urine ([1]; patient P2, T2 (6 months), T1 1.22): 1.37 | % variation S-Adenosine [1, 7]: −45.2% | % variation SAICAr [1, 7]: −51.0% | S-Ado/SAICAr ratio, urine ([1]; patient P2, T3 (12 months), T1 1.22): 1.36 | S-Adenosine, urine ([1]; patient P3, 6 months (T2) of allopurinol 200 mg/d oral, T1 148.6): 113.3 μmol/mmol creat | SAICAr, urine ([1]; patient P3, 6 months (T2) of allopurinol 200 mg/d oral, T1 167.9): 96.3 μmol/mmol creat | S-Adenosine, urine ([1]; patient P3, 12 months (T3) of allopurinol 200 mg/d oral, T1 148.6): 98.2 μmol/mmol creat | SAICAr, urine ([1]; patient P3, 12 months (T3) of allopurinol 200 mg/d oral, T1 167.9): 72.9 μmol/mmol creat | % variation S-Adenosine [1, 8]: −23.8% | % variation SAICAr [1, 8]: −42.7% | S-Ado/SAICAr ratio, urine ([1]; patient P3, T2 (6 months), T1 0.89): 1.18 | % variation S-Adenosine [1, 9]: −33.9% | % variation SAICAr [1, 9]: −56.6% | S-Ado/SAICAr ratio, urine ([1]; patient P3, T3 (12 months), T1 0.89): 1.35 | urinary SAICAr ([1]; after 6 and 12 months of treatment): significant reduction | urinary SAICAr ([1]; after 6 months): significant reduction | overall clinical outcome ([2]; 3 patients during treatment with allopurinol, more significant in the youngest patient (P3)): clinical improvement | Conners v-score, scale completed by the parents ([2]; 3 patients, T1, T2, T3): reduction in the v-score | scores on the Conners scale (parents and teachers) ([2]; 3 patients, during treatment): reduction | Conners score, Teachers ([2]; Patient 1, T2 (6 months), T1 2.2, significant when >1.5): 1.5 | Conners score, Parents ([2]; Patient 1, T2 (6 months), T1 2.3): 1.6 | Conners score, Teachers [2, 10]: 1 | Conners score, Parents ([2]; Patient 1, T3 (12 months), T1 2.3): 1.8 | Conners score, Parents ([2]; Patient 2, T2 (6 months), T1 1): 0.8 | Conners score, Teachers ([2]; Patient 2, T2 (6 months), T1 2): 1.5 | Conners score, Parents ([2]; Patient 2, T3 (12 months), T1 1): 0.5 | Conners score, Teachers ([2]; Patient 2, T3 (12 months), T1 2): 1.4 | Conners score, Parents ([2]; Patient 3, T2 (6 months), T1 1.7): 1.2 | Conners score, Teachers ([2]; Patient 3, T2 (6 months), T1 1.9): 1.8 | Conners score, Parents ([2]; Patient 3, T3 (12 months), T1 1.7): 1 | Conners score, Teachers ([2]; Patient 3, T3 (12 months), T1 1.9): 1 | hyperactivity reported by the parents and teachers ([2]; three children, allopurinol 200 mg/d): reduction in hyperactivity | behavioural disorders ([2]; three children, allopurinol 200 mg/d, after 6 and 12 months): substantial improvement | behavioural disorders assessed using the Conners and Vineland scales ([2]; three children, allopurinol 200 mg/d, after 6 months): substantial improvement | equivalent developmental ages ([3]; 3 patients, during treatment, rate remains slow with respect to chronological age): progression | PEP3 developmental age, EL (expressive language) [3, 11]: 1.8 | PEP3 developmental age, RL (receptive language) [3, 11]: 2.3 | PEP3 developmental age, GM [3, 10]: 2.8 | PEP3 developmental age, FM ([3]; Patient 1, T3 (12 months), T1 2.5): 2.8 | PEP3 developmental age, VPC (verbal and preverbal cognition) ([3]; Patient 1, T3 (12 months), T1 2.6, figures read as years.months per Table 2): 3 | PEP3 developmental age, VMI (visual-motor imitation) ([3]; Patient 1, T3 (12 months), T1 2.8): 3.3 | PEP3 developmental age, EL (expressive language) ([3]; Patient 2, T3 (12 months), T1 1.3): 1.7 | PEP3 developmental age, RL (receptive language) ([3]; Patient 2, T3 (12 months), T1 1.8): 2.7 | PEP3 developmental age, GM ([3]; Patient 2, T3 (12 months), T1 1.9): 3.3 | PEP3 developmental age, FM [3, 12]: 4.0 | PEP3 developmental age, VPC (verbal and preverbal cognition) [3, 12]: 2.3 | PEP3 developmental age, VMI (visual-motor imitation) ([3]; Patient 2, T3 (12 months), T1 6): 6.0 | PEP3 developmental age, EL (expressive language) [3, 13]: 2.3 | PEP3 developmental age, GM [3, 13]: 3.4 | PEP3 developmental age, RL (receptive language) ([3]; Patient 3, T3 (12 months), T1 1.5): 2 | PEP3 developmental age, VPC (verbal and preverbal cognition) ([3]; Patient 3, T3 (12 months), T1 1.6): 2.4 | PEP3 developmental age, FM ([3]; Patient 3, T3 (12 months), T1 2): 3.6 | PEP3 developmental age, VMI (visual-motor imitation) ([3]; Patient 3, T3 (12 months), T1 2.1): 3.3 | PEP3 developmental age, fine motor skills and receptive language ([3]; patient P2, T1 to T3): approximately a year | PEP3 developmental age, gross motor skills ([3]; patient P2, T1 to T3): improvement of more than a year | PEP3 developmental level, expressive language and preverbal and verbal cognition ([3]; patient P3, T1 to T3): gain of more than a year

Source: patent US20190298722A1, “USE OF AN INHIBITOR OF THE DE NOVO SYNTHESIS OF PURINES, IN THE TREATMENT OF ADENYLOSUCCINATE LYASE DEFICIENCY” (ASSISTANCE PUBLIQUE-HOPITAUX DE PARIS, priority 2016, published 2019)
